What was measured:
Assay type in all cases: functional
P388 [1] = experiment: In vivo antitumor activity against mouse P388 cells at 200 mg/kg in 1 day dosing schedule relative to control
P388 [2] = experiment: In vivo antitumor activity against mouse P388 cells at 0.5 mg/kg in 3 day dosing schedule relative to control
P388 [3] = experiment: In vivo antitumor activity against mouse P388 cells at 2 mg/kg in 3 day dosing schedule relative to control
P388 [4] = experiment: In vivo antitumor activity against mouse P388 cells at 1 mg/kg in 3 day dosing schedule relative to control

| Compound | T/C (P388 [1]) [%] | T/C (P388 [2]) [%] | T/C (P388 [3]) [%] | T/C (P388 [4]) [%] |
| --- | --- | --- | --- | --- |
| O=c1[nH]cc(F)c(=O)[nH]1 [FLUOROURACIL] | 135 |  |  |  |
| CCCCCC(=O)O[C@H]1C(=O)O[C@@H]2C[C@H]3C(C)=CC(=O)[C@@H](O)[C@]3(C)[C@H]3[C@@H](O)[C@H](O)[C@@]4(C(=O)OC)OC[C@]32[C@@H]14 |  | 123 | 134 |  |
| COC(=O)[C@@]12OC[C@]34[C@H]([C@@H](O)[C@@H]1O)[C@@]1(C)[C@H](O)C(=O)C=C(C)[C@@H]1C[C@H]3OC(=O)[C@H](OC(=O)c1ccccc1)[C@@H]24 |  | 130 |  | 129 |
